The molecules below were run against T1, human Npt2a (Homo sapiens, UniProt Q06495) (assay: Npt2a activity cell based assay, membrane potential dye, CHO T-REx hNpt2a cells). Conditions: doxycycline-induced, depolarization by sodium phosphate influx, average or median values if tested more than once.
T1 construct: expressed in transfected cells
T1 sequence (Q06495 1-639): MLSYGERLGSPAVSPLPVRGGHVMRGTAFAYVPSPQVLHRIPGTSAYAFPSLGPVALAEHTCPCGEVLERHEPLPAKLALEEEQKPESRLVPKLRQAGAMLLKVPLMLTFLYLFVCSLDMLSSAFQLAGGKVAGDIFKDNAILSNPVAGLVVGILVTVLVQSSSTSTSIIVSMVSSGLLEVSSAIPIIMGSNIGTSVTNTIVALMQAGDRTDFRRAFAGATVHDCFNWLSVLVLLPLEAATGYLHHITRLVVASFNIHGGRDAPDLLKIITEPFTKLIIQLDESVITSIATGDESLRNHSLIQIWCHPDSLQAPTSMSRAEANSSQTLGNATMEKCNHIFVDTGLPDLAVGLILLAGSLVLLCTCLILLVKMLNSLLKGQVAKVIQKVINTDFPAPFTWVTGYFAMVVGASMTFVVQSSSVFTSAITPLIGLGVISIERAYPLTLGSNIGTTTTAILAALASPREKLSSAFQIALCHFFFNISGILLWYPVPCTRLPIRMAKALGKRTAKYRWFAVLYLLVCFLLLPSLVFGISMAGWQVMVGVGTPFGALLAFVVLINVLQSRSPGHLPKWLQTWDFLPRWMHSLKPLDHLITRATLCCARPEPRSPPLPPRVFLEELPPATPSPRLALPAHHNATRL
Summary of the method: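 Doxycycline-induced (0.5 μg/mL, 24 h) CHO T-REx cells were loaded with membrane potential dye in sodium-free NHE buffer (pH 7.4) and exposed to compound (50 μM–1 nM, 5 min, room temperature).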
`Cc1nn(-c2cc(Nc3[nH]nc(-c4ccc(F)cc4F)c3Cl)ncn2)c(C)c1Cl` [Example 3, N-[4-chloro-3-(2,4-difluorophenyl)-1H-pyrazol-5-yl]-6-(4-chloro-3,5-dimethyl-1H-pyrazol-1-yl)pyrimidin-4-amine] was tested, and the IC50 was 13 nM.
`CCc1c(Nc2cc(-n3nc(C)c4c3CCCC4(C)O)ncn2)nn(C)c1-c1ccc(F)cc1` (racemic) [Example 134, (±)-1-(6-{[4-ethyl-5-(4-fluorophenyl)-1-methyl-1H-pyrazol-3-yl]amino}pyrimidin-4-yl)-3,4-dimethyl-4,5,6,7-tetrahydro-1H-indazol-4-ol (Racemate)] gave an IC50 of 180 nM.
`CC(=O)c1c(C)nn(-c2cc(Nc3c(C)c(-c4ccc(C#N)cc4)nn3CC3CC3)ncn2)c1C` [Example 321, 4-[5-{[6-(4-acetyl-3,5-dimethyl-1H-pyrazol-1-yl)pyrimidin-4-yl]amino}-1-(cyclopropylmethyl)-4-methyl-1H-pyrazol-3-yl]benzonitrile] showed an IC50 of 16 nM.
With `Cc1cc(C)n(-c2cc(Nc3c(C)c(-c4ccc(C5CN(C(=O)OC(C)(C)C)C5)cc4)nn3C)ncn2)n1` [Example 323, tert-butyl 3-[4-(5-{[6-(3,5-dimethyl-1H-pyrazol-1-yl)pyrimidin-4-yl]amino}-1,4-dimethyl-1H-pyrazol-3-yl)phenyl]azetidine-1-carboxylate] the IC50 was 660 nM.
Work on `Cc1cc(C(C)(C)O)n(-c2cc(Nc3c(C)c(-c4ccc(OC(F)(F)F)cc4)nn3CC3CC3)ncn2)n1` [Example 291, 2-{1-[6-({1-(cyclopropylmethyl)-4-methyl-3-[4-(trifluoromethoxy)phenyl]-1H-pyrazol-5-yl}amino)pyrimidin-4-yl]-3-methyl-1H-pyrazol-5-yl}propan-2-ol] yielded an IC50 of 110 nM.
For `Cc1cc(C(F)F)n(-c2cc(Nc3nn(C)c(-c4ccc(F)cc4)c3OC(F)F)ncn2)n1` [Example 412, N-[4-(difluoromethoxy)-5-(4-fluorophenyl)-1-methyl-1H-pyrazol-3-yl]-6-[5-(difluoromethyl)-3-methyl-1H-pyrazol-1-yl]pyrimidin-4-amine], the IC50 was 12 nM.
`CCc1c(Nc2cc(-n3nc(C)c(CN4CCN(C)CC4)c3C)ncn2)nn(C)c1-c1ccc(F)cc1` [Example 297, 6-{3,5-dimethyl-4-[(4-methylpiperazin-1-yl)methyl]-1H-pyrazol-1-yl}-N-[4-ethyl-5-(4-fluorophenyl)-1-methyl-1H-pyrazol-3-yl]pyrimidin-4-amine] was tested, and the IC50 was 1430 nM.
In the case of `Cc1nn(-c2cc(Nc3c(C)c(-c4ccc(C(F)F)nc4)nn3C)ncn2)c(C)c1C(F)(F)F` [Example 473, N-{3-[6-(difluoromethyl)pyridin-3-yl]-1,4-dimethyl-1H-pyrazol-5-yl}-6-[3,5-dimethyl-4-(trifluoromethyl)-1H-pyrazol-1-yl]pyrimidin-4-amine], the IC50 is reported as 160 nM.
Molecule `Cc1cc(C(F)F)n(-c2cc(Nc3nn(C)c(-c4ccc(C#N)cc4)c3C)ncn2)n1` [Example 236, 4-[3-({6-[5-(difluoromethyl)-3-methyl-1H-pyrazol-1-yl]pyrimidin-4-yl}amino)-1,4-dimethyl-1H-pyrazol-5-yl]benzonitrile] has an IC50 of 3 nM.
`CC(=O)c1c(C)nn(-c2cc(Nc3c(C)nn(-c4ccc(C#N)cc4)c3C)ncn2)c1C` [Example 451, 4-(4-{[6-(4-acetyl-3,5-dimethyl-1H-pyrazol-1-yl)pyrimidin-4-yl]amino}-3,5-dimethyl-1H-pyrazol-1-yl)benzonitrile] gave an IC50 of 78 nM.
In the case of `CSc1cc(-c2nn(CC3CC3)c(Nc3cc(-n4nc(C)cc4C)ncn3)c2C)ccc1F` [Example 430, N-{1-(cyclopropylmethyl)-3-[4-fluoro-3-(methylsulfanyl)phenyl]-4-methyl-1H-pyrazol-5-yl}-6-(3,5-dimethyl-1H-pyrazol-1-yl)pyrimidin-4-amine], the IC50 is reported as 45 nM.
Work on `Cc1cc(C(F)F)n(-c2cc(Nc3c(C)c(-c4ccc(C(F)(F)F)nc4)nn3C)ncn2)n1` [Example 548, 6-[5-(difluoromethyl)-3-methyl-1H-pyrazol-1-yl]-N-{1,4-dimethyl-3-[6-(trifluoromethyl)pyridin-3-yl]-1H-pyrazol-5-yl}pyrimidin-4-amine] yielded an IC50 of 790 nM.
With `CCOC(=O)c1c(C)nn(-c2cc(Nc3c(CC)c(-c4ccc(F)cc4)nn3CC3CC3)ncn2)c1C` [Example 147, ethyl 1-(6-{[1-(cyclopropylmethyl)-4-ethyl-3-(4-fluorophenyl)-1H-pyrazol-5-yl]amino}pyrimidin-4-yl)-3,5-dimethyl-1H-pyrazole-4-carboxylate] the IC50 was 3 nM.
Work on `CCc1c(Nc2cc(-n3nc(C)c4c3CCC4(C)O)ncn2)nn(C)c1-c1ccc(F)cc1` (racemic) [Example 146, (rac)-1-(6-{[4-ethyl-5-(4-fluorophenyl)-1-methyl-1H-pyrazol-3-yl]amino}pyrimidin-4-yl)-3,4-dimethyl-1,4,5,6-tetrahydrocyclopenta[c]pyrazol-4-ol] yielded an IC50 of 126 nM.
`Cc1nn(-c2cc(Nc3c(C)c(-c4ccc(F)cc4F)nn3C)ncn2)c(C)c1C(C)(C)O` [Example 378, 2-[1-(6-{[3-(2,4-difluorophenyl)-1,4-dimethyl-1H-pyrazol-5-yl]amino}pyrimidin-4-yl)-3,5-dimethyl-1H-pyrazol-4-yl]propan-2-ol] gave an IC50 of 2550 nM.
`CNC(=O)Oc1c(C)nn(-c2cc(Nc3c(C)c(-c4ccc(F)cc4)nn3CC3CC3)ncn2)c1C` [Example 519, 1-(6-{[1-(cyclopropylmethyl)-3-(4-fluorophenyl)-4-methyl-1H-pyrazol-5-yl]amino}pyrimidin-4-yl)-3,5-dimethyl-1H-pyrazol-4-yl methylcarbamate] gave an IC50 of 230 nM.
In the case of `Cc1cc(C(F)F)n(-c2cc(Nc3n[nH]c(-c4ccc(F)cc4)c3C)ncn2)n1` [Example 66, 6-[5-(difluoromethyl)-3-methyl-1H-pyrazol-1-yl]-N-[5-(4-fluorophenyl)-4-methyl-1H-pyrazol-3-yl]pyrimidin-4-amine], the IC50 is reported as 87 nM.
`Cc1c(-c2ccc(C#N)cc2)nn(CC2CC2)c1Nc1cc(-n2cc(C(F)(F)F)cn2)ncn1` [Example 247, 4-[1-(cyclopropylmethyl)-4-methyl-5-({6-[4-(trifluoromethyl)-1H-pyrazol-1-yl]pyrimidin-4-yl}amino)-1H-pyrazol-3-yl]benzonitrile] was tested, and the IC50 was 29 nM.
For `CCc1c(Nc2cc(-n3nc(C)c(C(=O)N(C)C)c3C)ncn2)nn(C)c1-c1ccc(F)cc1` [Example 127, 1-(6-{[4-ethyl-5-(4-fluorophenyl)-1-methyl-1H-pyrazol-3-yl]amino}pyrimidin-4-yl)-N,N,3,5-tetramethyl-1H-pyrazole-4-carboxamide], the IC50 was 1200 nM.
`CCc1c(Nc2cc(-n3nc(C)cc3C)ncn2)nn(CC2CC2)c1-c1ccc(F)cc1` [Example 143, N-[1-(cyclopropylmethyl)-4-ethyl-5-(4-fluorophenyl)-1H-pyrazol-3-yl]-6-(3,5-dimethyl-1H-pyrazol-1-yl)pyrimidin-4-amine] gave an IC50 of 415 nM.
`Cc1nn(-c2cc(Nc3c(C)c(-c4ccc(F)cc4)nn3CC3CC3)ncn2)c(C)c1C(C)O` (single isomer, unassigned) [Example 330, 1-[1-(6-{[1-(cyclopropylmethyl)-3-(4-fluorophenyl)-4-methyl-1H-pyrazol-5-yl]amino}pyrimidin-4-yl)-3,5-dimethyl-1H-pyrazol-4-yl]ethanol] was tested, and the IC50 was 22 nM.
